According to ChEMBL document CHEMBL4482310, “Inhibitors of grb2-associated binding protein 1 (gab1) and methods of treating cancer using the same” (2017):

Assays:
[1] = molecular target: T1, Insulin receptor substrate 1 (Homo sapiens) (UniProt P35568); test: Inhibition of HGF-induced IRS1 phosphorylation in human T47D cells assessed as pSer312 IRS1/total-IRS1 ratio level at 20 uM pre-incubated for 4 hrs before stimulation with HGF for 20 mins (reference value: 100 +/- 0.02%); type: cell-based; set-up: scale not given: the % may be the effect or the level left
T1 sequence (whole entry): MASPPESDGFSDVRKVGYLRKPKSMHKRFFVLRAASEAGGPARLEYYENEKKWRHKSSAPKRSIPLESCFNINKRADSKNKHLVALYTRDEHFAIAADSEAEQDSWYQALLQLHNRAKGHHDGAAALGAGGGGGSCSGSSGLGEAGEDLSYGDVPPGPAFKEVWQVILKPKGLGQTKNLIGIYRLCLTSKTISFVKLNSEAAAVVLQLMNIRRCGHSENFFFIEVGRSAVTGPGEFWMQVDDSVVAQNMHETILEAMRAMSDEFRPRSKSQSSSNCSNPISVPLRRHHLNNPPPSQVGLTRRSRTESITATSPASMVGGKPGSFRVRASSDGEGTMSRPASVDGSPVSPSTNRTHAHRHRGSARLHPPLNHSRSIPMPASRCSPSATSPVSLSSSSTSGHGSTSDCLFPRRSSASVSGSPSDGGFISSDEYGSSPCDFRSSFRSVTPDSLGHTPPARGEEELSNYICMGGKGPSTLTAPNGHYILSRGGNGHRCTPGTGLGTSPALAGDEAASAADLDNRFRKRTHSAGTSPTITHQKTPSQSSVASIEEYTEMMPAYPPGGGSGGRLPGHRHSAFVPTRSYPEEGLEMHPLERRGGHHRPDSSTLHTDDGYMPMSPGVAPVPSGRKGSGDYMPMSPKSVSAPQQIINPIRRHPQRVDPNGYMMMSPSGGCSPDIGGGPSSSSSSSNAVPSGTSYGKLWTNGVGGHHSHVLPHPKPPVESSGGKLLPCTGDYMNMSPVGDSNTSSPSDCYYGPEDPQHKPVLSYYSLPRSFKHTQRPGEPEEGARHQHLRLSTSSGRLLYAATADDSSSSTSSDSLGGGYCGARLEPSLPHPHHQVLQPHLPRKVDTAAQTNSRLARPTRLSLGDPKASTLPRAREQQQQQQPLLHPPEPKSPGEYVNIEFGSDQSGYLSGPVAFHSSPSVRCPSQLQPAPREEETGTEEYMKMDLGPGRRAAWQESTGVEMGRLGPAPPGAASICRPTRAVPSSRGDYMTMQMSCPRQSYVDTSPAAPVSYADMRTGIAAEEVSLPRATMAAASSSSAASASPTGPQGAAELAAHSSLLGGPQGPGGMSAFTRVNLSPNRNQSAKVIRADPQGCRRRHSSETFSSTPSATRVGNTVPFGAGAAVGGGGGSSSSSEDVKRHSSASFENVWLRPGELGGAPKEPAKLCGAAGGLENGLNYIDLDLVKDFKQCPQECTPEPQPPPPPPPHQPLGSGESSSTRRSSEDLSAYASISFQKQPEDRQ

[2] = molecular target: T2, Insulin receptor substrate 1 (Homo sapiens, UniProt P35568); test: Binding affinity to recombinant human IRS1 PH domain expressed in Escherichia coli BL21 (DE3) by surface plasmon resonance assay
T2 sequence (P35568 whole entry): T1 sequence (whole entry)

[3] = molecular target: T3, GRB2-associated-binding protein 1 (Homo sapiens, UniProt Q13480); test: Binding affinity to recombinant human GAB1 PH domain expressed in Escherichia coli BL21 (DE3) by surface plasmon resonance assay
T3 sequence (Q13480 whole entry): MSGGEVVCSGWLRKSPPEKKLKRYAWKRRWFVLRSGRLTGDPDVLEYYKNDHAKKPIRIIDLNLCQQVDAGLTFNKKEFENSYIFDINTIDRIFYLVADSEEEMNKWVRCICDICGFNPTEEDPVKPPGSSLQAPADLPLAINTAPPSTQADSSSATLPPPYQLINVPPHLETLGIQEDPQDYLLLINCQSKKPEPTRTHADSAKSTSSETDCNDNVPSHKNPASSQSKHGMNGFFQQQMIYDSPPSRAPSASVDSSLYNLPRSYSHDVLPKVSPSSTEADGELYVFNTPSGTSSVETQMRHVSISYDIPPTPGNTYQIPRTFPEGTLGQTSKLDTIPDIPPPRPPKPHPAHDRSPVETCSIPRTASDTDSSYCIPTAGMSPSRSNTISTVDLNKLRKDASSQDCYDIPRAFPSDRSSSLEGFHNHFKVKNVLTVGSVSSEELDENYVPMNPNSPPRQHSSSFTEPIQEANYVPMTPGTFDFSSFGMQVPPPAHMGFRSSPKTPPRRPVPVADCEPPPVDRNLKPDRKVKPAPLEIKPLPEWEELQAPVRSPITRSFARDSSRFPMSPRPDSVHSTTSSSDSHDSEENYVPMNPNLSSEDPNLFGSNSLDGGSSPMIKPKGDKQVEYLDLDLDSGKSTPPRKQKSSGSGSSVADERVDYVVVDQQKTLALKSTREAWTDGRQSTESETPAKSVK

[4] = molecular target: T4, GRB2-associated-binding protein 1 (Homo sapiens) (UniProt Q13480); test: Inhibition of HGF-stimulated GAB1 Y627 phosphorylation in human T47D cells at 20 uM pre-incubated for 4 hrs before stimulation with HGF for 20 mins; type: cell-based
T4 sequence (whole entry): T3 sequence (Q13480 whole entry)

[5] = tested on: MCF-10A; test: Cytotoxicity in human MCF10A cells assessed as reduction in cell viability incubated for 4 days by MTT assay; type: cell-based; settings: 96 h
[6] = tested on: MDA-MB-231; test: Cytotoxicity in human MDA-MB-231 cells assessed as reduction in cell viability incubated for 4 days by MTT assay; type: functional, cell-based
[7] = tested on: T47D; test: Cytotoxicity in human T47D cells assessed as reduction in cell viability incubated for 4 days by MTT assay; type: functional, cell-based
[8] = tested on: MCF-10A; test: Cytotoxicity in human MCF10A cells assessed as reduction in cell viability at 100 uM incubated for 4 days by MTT assay; type: cell-based; settings: 96 h

Row | SMILES | Activity [1] [%] | Kd [2] | Kd [3] | Kd ([2]; read-out: Kd) [nM] | further results
1 | Cc1noc(C)c1NC(=O)NCc1csc(-c2cccs2)n1 | 100 | Not Active | Not Active |  | 
2 | CCCCCCCCCCCCc1ccc(S(=O)(=O)Nc2nnc(CC(=O)OCC)s2)cc1 | 60.6 |  |  | 150 | inhibition [4]: 96%; Activity [5]: Non-Toxic; Kd ([3]; read-out: Kd): 900 nM
3 | Cc1cc2ncc(-c3cnc(SCCS(=O)(=O)c4ccc(Cl)cc4)nc3)c(C)n2n1 | 98.2 | Not Active | Not Active |  | 
4 | O=S(=O)(NCc1csc2ccc(Cl)cc12)c1cc(S(=O)(=O)c2ccccc2)cs1 | 46.5 | Not Active |  |  | Activity [5]: Non-Toxic
5 | O=c1[nH]nc(SCc2csc(-c3ccccc3)n2)n1Cc1ccco1 | 40.7 | Not Active |  |  | Activity [5]: Non-Toxic; Kd ([3]; read-out: Kd): 2200 nM
6 | CCCCCCCCCCCCc1ccc(S(=O)(=O)Nc2nnc(CC(=O)O)s2)cc1 | 69 |  |  | 50 | 
7 | CCCCCCCCCCCCc1ccc(S(=O)(=O)Nc2nnc(C(=O)OCC)s2)cc1 | 78.4 |  |  | 50 | inhibition [4]: 82%; Activity [5]: Non-Toxic; Kd ([3]; read-out: Kd): 680 nM
8 | CCc1ccc(C(=O)OC)cc1CSc1nnc(-c2ccc(C(F)(F)F)cc2)n1Cc1ccoc1 | 64.4 |  |  |  | 
9 | COc1cc(NS(=O)(=O)c2ccc(NS(=O)(=O)c3c(C)noc3C)cc2)nc(OC)n1 | 91.7 | Not Active | Not Active |  | IC50 [6]: Not Active; IC50 [7]: Not Active; Activity [8]: Non-Toxic
10 | Cn1c(Cc2ccsc2)nnc1SCC(=O)Nc1cc(Cl)cc(Cl)c1 | 84.8 | Not Active | Not Active |  | IC50 [6]: Not Active; IC50 [7]: Not Active
11 | CCCCCCCCCCCCc1ccc(S(=O)(=O)Nc2nnc(S(N)(=O)=O)s2)cc1 | 115 | Not Active |  |  | 
12 | CCCCCCCCCCCCCCCCCCOC[C@H](COP(=O)(O)O[C@H]1[C@H](O)[C@@H](O)[C@H](O)C[C@H]1O)OC | 116 |  |  |  | inhibition [4]: 72%
13 | Cn1cnc(S(=O)(=O)Nc2ccccc2SCCS(=O)(=O)c2ccc(Cl)cc2)c1 | 83.2 |  |  | 16400 | Kd ([3]; read-out: Kd): 2100 nM
14 | O=S(=O)(NCc1csc(-c2cccs2)n1)c1ccc(N2CCOCC2)nc1 | 101 |  | Not Active | 16200 | IC50 [6]: Not Active
15 | CS(=O)(=NS(=O)(=O)c1ccc(-c2ccccn2)s1)c1ccc(Cl)cc1 (stereo unspecified) | 102 | Not Active | Not Active |  | IC50 [6]: Not Active; IC50 [7]: Not Active
16 | CS(=O)(=O)CCSc1ncccc1C(=O)Sc1ccc(Cl)cc1Cl | 79.7 |  |  | 1600 | Activity [5]: Non-Toxic; Kd ([3]; read-out: Kd): 42300 nM
17 | Cc1nnc(NS(=O)(=O)c2ccc(NS(=O)(=O)c3ccc4ccccc4c3)cc2)s1 | 89.9 | Not Active | Not Active |  | 
18 | CCCCCCCCCCCCc1ccc(S(=O)(=O)Nc2nncs2)cc1 | 61.3 |  |  |  | Kd ([3]; read-out: Kd): 1330 nM
19 | Cc1nc(-c2ccc(S(=O)(=O)N3CCN(C4c5ccccc5-c5ccccc54)CC3)s2)cs1 | 98.7 |  |  |  | 
20 | O=C(O)c1ccccc1C(=O)Nc1ccccc1SCCS(=O)(=O)c1ccc(Cl)cc1 | 75.6 | Not Active | Not Active |  | IC50 [6]: Not Active; Activity [8]: Non-Toxic
21 | Cc1onc(-c2ccccc2)c1-c1nc(CSc2nc3ccccc3[nH]2)no1 | 31.1 |  | Not Active | 120 | 
